The structures appear in SMILES notation.

Results on 26 molecules are retold here after patent publication US12459922B2 (Gilead Sciences, Inc., priority 2022, dated 2025).

In the assay the test system is endogenous cellular STAT1 (phosphorylated at Tyr701) in NCI-H1373 cells. The experiment in a line: Phospho-STAT1 (Tyr701) LANCE Ultra TR-FRET Detection Assay. The following applies: Homo sapiens, NCI-H1373, 48 h, phospho-STAT1 (Tyr701) induction, read-out: NH1373 pSTAT1 EC50. In kind it is cell-based.

On to `C[C@@H](CCCn1cnc2cc(-c3ccc(Cl)c(N)n3)c(F)cc2c1=O)Nc1cn[nH]c(=O)c1C(F)(F)F` [Example 294, (S)-7-(6-amino-5-chloropyridin-2-yl)-6-fluoro-3-(4-((6-oxo-5-(trifluoromethyl)-1,6-dihydropyridazin-4-yl)amino)pentyl)quinazolin-4(3H)-one], for which the concentration giving a half-maximal response (EC50) amounted to 28.8 nM.
Turning to `CC[C@@H](CCCn1cnc2cc(-c3cnc(C(F)F)cn3)c(F)cc2c1=O)Nc1cn[nH]c(=O)c1C(F)(F)F` [Example 346, (S)-7-(5-(difluoromethyl)pyrazin-2-yl)-6-fluoro-3-(4-((6-oxo-5-(trifluoromethyl)-1,6-dihydropyridazin-4-yl)amino)hexyl)quinazolin-4(3H)-one], the half-maximal effective concentration (EC50) is 187 nM.
Under `Nc1nc(-c2cc3ncn(CC[C@H]4CCC[C@@H]4Nc4cn[nH]c(=O)c4C(F)(F)F)c(=O)c3cc2F)cnc1C(F)(F)F` [Example 465, 7-(6-amino-5-(trifluoromethyl)pyrazin-2-yl)-6-fluoro-3-(2-((1R,2S)-2-((6-oxo-5-(trifluoromethyl)-1,6-dihydropyridazin-4-yl)amino)cyclopentyl)ethyl)quinazolin-4(3H)-one] stands 18 nM.
On to `C[C@@H](CCCn1cnc2cc(-c3ncc(C(F)(F)F)c(N4CC(O)C4)n3)c(F)cc2c1=O)Nc1cn[nH]c(=O)c1C(F)(F)F` [Example 124, (S)-6-fluoro-7-(4-(3-hydroxyazetidin-1-yl)-5-(trifluoromethyl)pyrimidin-2-yl)-3-(4-((6-oxo-5-(trifluoromethyl)-1,6-dihydropyridazin-4-yl)amino)pentyl)quinazolin-4(3H)-one], for which the EC50 stood at 11.4 nM.
Under `Nc1nc(-c2cc3ncn(C[C@@H]4CCC[C@H](Nc5cn[nH]c(=O)c5C(F)(F)F)C4)c(=O)c3cc2F)ncc1C(F)F` [Example 236] stands 32.2 nM; under `C[C@@H](CCCn1ccc2cc(-c3ncc(C(F)(F)F)cc3C#N)c(F)cc2c1=O)Nc1cn[nH]c(=O)c1C(F)(F)F` [Example 289, (S)-2-(7-fluoro-1-oxo-2-(4-((6-oxo-5-(trifluoromethyl)-1,6-dihydropyridazin-4-yl)amino)pentyl)-1,2-dihydroisoquinolin-6-yl)-5-(trifluoromethyl)nicotinonitrile], 108 nM; under `C[C@@H](CCCn1ccc2cc(-c3cn4ccnc4c(N)n3)c(F)cc2c1=O)Nc1cn[nH]c(=O)c1C(F)(F)F` [Example 332, (S)-6-(8-aminoimidazo[1,2-a]pyrazin-6-yl)-7-fluoro-2-(4-((6-oxo-5-(trifluoromethyl)-1,6-dihydropyridazin-4-yl)amino)pentyl)isoquinolin-1(2H)-one], 8.92 nM.
The result for `Nc1nc(-c2cc3ccn(C[C@@H]4CCC[C@H](Nc5cn[nH]c(=O)c5C(F)(F)F)C4)c(=O)c3cc2F)ncc1C(F)F` [Example 231, 6-(4-amino-5-(difluoromethyl)pyrimidin-2-yl)-7-fluoro-2-(((1R,3S)-3-((6-oxo-5-(trifluoromethyl)-1,6-dihydropyridazin-4-yl)amino)cyclohexyl)methyl)isoquinolin-1(2H)-one] reads 5.92 nM; that for `Nc1nc(-c2cc3ccn(C[C@@H]4CC[C@H](Nc5cn[nH]c(=O)c5C(F)(F)F)C4)c(=O)c3cc2F)ncc1C(F)(F)F` [Example 444, 6-(4-amino-5-(trifluoromethyl)pyrimidin-2-yl)-7-fluoro-2-(((1R,3S)-3-((6-oxo-5-(trifluoromethyl)-1,6-dihydropyridazin-4-yl)amino)cyclopentyl)methyl)isoquinolin-1(2H)-one], 25.1 nM.
Under `O=c1[nH]ncc(N[C@H](CCCn2cnc3cc(-c4cnc(C(F)F)cn4)c(F)cc3c2=O)COC(F)F)c1C(F)(F)F` [Example 372, (R)-3-(5-(difluoromethoxy)-4-((6-oxo-5-(trifluoromethyl)-1,6-dihydropyridazin-4-yl)amino)pentyl)-7-(5-(difluoromethyl)pyrazin-2-yl)-6-fluoroquinazolin-4(3H)-one] stands 7.13 nM.
Regarding `N#Cc1ccc(-c2cc3ccn(CCC[C@H](COC(F)F)Nc4cn[nH]c(=O)c4C(F)(F)F)c(=O)c3cc2F)nc1N` [Example 411, (R)-2-amino-6-(2-(5-(difluoromethoxy)-4-((6-oxo-5-(trifluoromethyl)-1,6-dihydropyridazin-4-yl)amino)pentyl)-7-fluoro-1-oxo-1,2-dihydroisoquinolin-6-yl)nicotinonitrile], the EC50 was determined as 5.28 nM.
Under `O=c1[nH]ncc(N[C@H]2CCC[C@@H](Cn3ccc4cc(-c5nc6ccccn6n5)c(F)cc4c3=O)C2)c1C(F)(F)F` [Example 488, 6-([1,2,4]triazolo[1,5-a]pyridin-2-yl)-7-fluoro-2-(((1R,3S)-3-((6-oxo-5-(trifluoromethyl)-1,6-dihydropyridazin-4-yl)amino)cyclohexyl)methyl)isoquinolin-1(2H)-one] stands 0.51 nM.
The result for `O=c1[nH]ncc(N[C@H](CCCn2cnc3cc(-c4ccc5c(n4)NCCO5)c(F)cc3c2=O)COC(F)F)c1C(F)(F)F` [Example 425, (R)-3-(5-(difluoromethoxy)-4-((6-oxo-5-(trifluoromethyl)-1,6-dihydropyridazin-4-yl)amino)pentyl)-7-(3,4-dihydro-2H-pyrido[3,2-b][1,4]oxazin-6-yl)-6-fluoroquinazolin-4(3H)-one] reads 9.83 nM; that for `C[C@@H](CCCn1ccc2cc(-c3ncc(C(F)(F)F)cc3N)c(F)cc2c1=O)Nc1cn[nH]c(=O)c1C(F)(F)F` [Example 328, (S)-6-(3-amino-5-(trifluoromethyl)pyridin-2-yl)-7-fluoro-2-(4-((6-oxo-5-(trifluoromethyl)-1,6-dihydropyridazin-4-yl)amino)pentyl)isoquinolin-1(2H)-one], 78.6 nM; that for `Nc1nc(-c2cc3ccn(C[C@@H]4CCC[C@H](Nc5cn[nH]c(=O)c5C(F)(F)F)C4)c(=O)c3cc2F)ncc1OC(F)F` [Example 260, 6-(4-amino-5-(difluoromethoxy)pyrimidin-2-yl)-7-fluoro-2-(((1R,3S)-3-((6-oxo-5-(trifluoromethyl)-1,6-dihydropyridazin-4-yl)amino)cyclohexyl)methyl)isoquinolin-1(2H)-one], 12.7 nM.
Under `Nc1nc(-c2cc3ccn(CCC[C@@H](Nc4cn[nH]c(=O)c4C(F)(F)F)C4CC4)c(=O)c3cc2F)ncc1C(F)F` [Example 147] stands 39.1 nM; under `CCNc1nc(-c2cc3ncn(CCC[C@H](C)Nc4cn[nH]c(=O)c4C(F)(F)F)c(=O)c3cc2F)ncc1C(F)(F)F` [Example 117, 7-[4-(ethylamino)-5-(trifluoromethyl)pyrimidin-2-yl]-6-fluoro-3-[(4S)-4-[[6-oxo-5-(trifluoromethyl)-1H-pyridazin-4-yl]amino]pentyl]quinazolin-4-one], 5.21 nM; under `O=c1[nH]ncc(N[C@H](CCCn2ccc3cc(-c4ncc(C(F)(F)F)cn4)c(F)cc3c2=O)c2nnc(C(F)F)o2)c1C(F)(F)F` [Example 477, 2-[(4R)-4-[5-(difluoromethyl)-1,3,4-oxadiazol-2-yl]-4-[[6-oxo-5-(trifluoromethyl)-1H-pyridazin-4-yl]amino]butyl]-7-fluoro-6-[5-(trifluoromethyl)pyrimidin-2-yl]isoquinolin-1-one], 18.4 nM.
With `COc1cnc(-c2cc3ccn(CCC[C@H](C)Nc4cn[nH]c(=O)c4C(F)(F)F)c(=O)c3cc2F)nc1NC1CC1` [Example 216, (S)-6-(4-(cyclopropylamino)-5-methoxypyrimidin-2-yl)-7-fluoro-2-(4-((6-oxo-5-(trifluoromethyl)-1,6-dihydropyridazin-4-yl)amino)pentyl)isoquinolin-1(2H)-one], the concentration for a half-maximal effect (EC50) was determined as 39.3 nM.
Consider `C[C@@H](CCCn1ccc2cc(-c3ncc(OCCO)cn3)c(F)cc2c1=O)Nc1cn[nH]c(=O)c1C(F)(F)F` [Example 129, (S)-7-fluoro-6-(5-(2-hydroxyethoxy)pyrimidin-2-yl)-2-(4-((6-oxo-5-(trifluoromethyl)-1,6-dihydropyridazin-4-yl)amino)pentyl)isoquinolin-1(2H)-one], for which the EC50 is 77.8 nM.
The result for `O=c1[nH]ncc(N[C@H](CCCn2ccc3cc(-c4ncc(C(F)F)cn4)c(F)c(F)c3c2=O)COC(F)F)c1C(F)(F)F` [Example 388, (R)-2-(5-(difluoromethoxy)-4-((6-oxo-5-(trifluoromethyl)-1,6-dihydropyridazin-4-yl)amino)pentyl)-6-(5-(difluoromethyl)pyrimidin-2-yl)-7,8-difluoroisoquinolin-1(2H)-one] reads 2.74 nM; that for `CNc1nc(-c2cc3ccn(CCC[C@H](C)Nc4cn[nH]c(=O)c4C(F)(F)F)c(=O)c3cc2F)ncc1OC` [Example 214], 17.9 nM; that for `Nc1nc(-c2cc3ccn(CC[C@H]4CCC[C@@H]4Nc4cn[nH]c(=O)c4C(F)(F)F)c(=O)c3cc2F)ncc1C(F)(F)F` [Example 178, 6-(4-amino-5-(trifluoromethyl)pyrimidin-2-yl)-7-fluoro-2-(2-((1R,2S)-2-((6-oxo-5-(trifluoromethyl)-1,6-dihydropyridazin-4-yl)amino)cyclopentyl)ethyl)isoquinolin-1(2H)-one], 1.8 nM.
For the molecule `CC[C@@H](CCCn1ccc2cc(-c3ncc(C(F)F)c(N)n3)c(F)c(F)c2c1=O)Nc1cn[nH]c(=O)c1C(F)(F)F` [Example 356, (S)-6-(4-amino-5-(difluoromethyl)pyrimidin-2-yl)-7,8-difluoro-2-(4-((6-oxo-5-(trifluoromethyl)-1,6-dihydropyridazin-4-yl)amino)hexyl)isoquinolin-1(2H)-one], the 50% effective concentration (EC50) is 4.9 nM.
The result for `O=c1[nH]ncc(N[C@H]2CCC[C@@H](Cn3ccc4cc(-c5cnc(C6COC6)cn5)c(F)cc4c3=O)C2)c1C(F)(F)F` [Example 266, 7-fluoro-6-(5-(oxetan-3-yl)pyrazin-2-yl)-2-(((1R,3S)-3-((6-oxo-5-(trifluoromethyl)-1,6-dihydropyridazin-4-yl)amino)cyclohexyl)methyl)isoquinolin-1(2H)-one] reads 187 nM.
The result for `CC[C@@H](CCCn1ccc2cc(-c3ncc(C#N)c(N)n3)c(F)cc2c1=O)Nc1cn[nH]c(=O)c1C(F)(F)F` [Example 70, 4-amino-2-[7-fluoro-1-oxo-2-[(4S)-4-[[6-oxo-5-(trifluoromethyl)-1H-pyridazin-4-yl]amino]hexyl]-6-isoquinolyl]pyrimidine-5-carbonitrile] reads 22.1 nM.

The EC50 is the concentration needed to bring the measured effect to its halfway point.
